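Interpolation was linear, between the two tested concentrations surrounding the appropriate level; five concentrations were tested over 48 hours in 96-well plates. At the TGI there is no net growth.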
Legend:
Assay in all cases: NCI anticancer screen, dose series, 48 h
RPMI-8226 leukemia = system: RPMI-8226 leukemia
UO-31 renal = system: UO-31 renal
U251 CNS = system: U251 CNS
COLO 205 colon = system: COLO 205 colon
DU-145 prostate = system: DU-145 prostate
MCF7 breast = system: MCF7 breast
OVCAR-3 ovarian = system: OVCAR-3 ovarian
SF-295 CNS = system: SF-295 CNS
HCT-116 colon = system: HCT-116 colon
OVCAR-4 ovarian = system: OVCAR-4 ovarian
CCRF-CEM leukemia = system: CCRF-CEM leukemia
SK-OV-3 ovarian = system: SK-OV-3 ovarian
MALME-3M melanoma = system: MALME-3M melanoma
HCT-15 colon = system: HCT-15 colon
A549 NSCLC = system: A549 NSCLC
NCI-H226 lung = system: NCI-H226 lung
OVCAR-5 ovarian = system: OVCAR-5 ovarian
ACHN renal = system: ACHN renal
BT-549 breast = system: BT-549 breast
T-47D breast = system: T-47D breast
SNB-75 CNS = system: SNB-75 CNS
HOP-62 NSCLC = system: HOP-62 NSCLC
SK-MEL-2 melanoma = system: SK-MEL-2 melanoma
A498 renal = system: A498 renal
OVCAR-8 ovarian = system: OVCAR-8 ovarian
KM12 colon = system: KM12 colon
UACC-257 melanoma = system: UACC-257 melanoma
PC-3 prostate = system: PC-3 prostate
EKVX NSCLC = system: EKVX NSCLC
SK-MEL-28 melanoma = system: SK-MEL-28 melanoma
SN12C renal = system: SN12C renal
UACC-62 melanoma = system: UACC-62 melanoma
NCI-H460 lung = system: NCI-H460 lung
MDA-MB-435 = system: MDA-MB-435
NCI/ADR-RES ovarian = system: NCI/ADR-RES ovarian
MDA-MB-231 breast = system: MDA-MB-231 breast
786-0 renal = system: 786-0 renal
SW-620 colon = system: SW-620 colon
NCI-H23 lung = system: NCI-H23 lung
SNB-19 CNS = system: SNB-19 CNS
HCC-2998 colon = system: HCC-2998 colon
MDA-N = system: MDA-N
HT29 colon = system: HT29 colon
MOLT-4 leukemia = system: MOLT-4 leukemia
SF-268 CNS = system: SF-268 CNS
K-562 leukemia = system: K-562 leukemia
CAKI-1 renal = system: CAKI-1 renal
M14 melanoma = system: M14 melanoma
SF-539 CNS = system: SF-539 CNS
HS 578T breast = system: HS 578T breast
HL-60(TB) leukemia = system: HL-60(TB) leukemia
TK-10 renal = system: TK-10 renal
RXF 393 renal = system: RXF 393 renal
NCI-H522 lung = system: NCI-H522 lung
LOX IMVI melanoma = system: LOX IMVI melanoma
HOP-92 NSCLC = system: HOP-92 NSCLC
SR leukemia = system: SR leukemia
IGROV1 ovarian = system: IGROV1 ovarian
SK-MEL-5 melanoma = system: SK-MEL-5 melanoma

Measured: TGI

COc1ccc(/C=N/n2c(C)n[nH]c2=O)cc1
> 100 µM: RPMI-8226 leukemia | UO-31 renal | U251 CNS | COLO 205 colon | DU-145 prostate | MCF7 breast | OVCAR-3 ovarian | SF-295 CNS | HCT-116 colon | OVCAR-4 ovarian | CCRF-CEM leukemia | SK-OV-3 ovarian | MALME-3M melanoma | HCT-15 colon | A549 NSCLC | NCI-H226 lung | OVCAR-5 ovarian | ACHN renal | BT-549 breast | T-47D breast | SNB-75 CNS | HOP-62 NSCLC | SK-MEL-2 melanoma | A498 renal | OVCAR-8 ovarian | KM12 colon | UACC-257 melanoma | PC-3 prostate | EKVX NSCLC | SK-MEL-28 melanoma | SN12C renal | UACC-62 melanoma | NCI-H460 lung | MDA-MB-435 | NCI/ADR-RES ovarian | MDA-MB-231 breast | 786-0 renal | SW-620 colon | NCI-H23 lung | SNB-19 CNS | HCC-2998 colon | MDA-N | HT29 colon | MOLT-4 leukemia | SF-268 CNS | K-562 leukemia | CAKI-1 renal | M14 melanoma | SF-539 CNS

CSCCCNC(=O)c1csc([C@@H](CSC)NC(=O)CCNC(=O)[C@@H](NC(=O)OCC(Br)(Br)Br)C(C)O)n1 (some centres undefined)
> 100 µM: UO-31 renal | HS 578T breast | U251 CNS | COLO 205 colon | DU-145 prostate | MCF7 breast | OVCAR-3 ovarian | SF-295 CNS | HL-60(TB) leukemia | HCT-116 colon | OVCAR-4 ovarian | CCRF-CEM leukemia | SK-OV-3 ovarian | MALME-3M melanoma | HCT-15 colon | A549 NSCLC | TK-10 renal | NCI-H226 lung | OVCAR-5 ovarian | ACHN renal | BT-549 breast | RXF 393 renal | NCI-H522 lung | SNB-75 CNS | HOP-62 NSCLC | SK-MEL-2 melanoma | A498 renal | OVCAR-8 ovarian | KM12 colon | LOX IMVI melanoma | UACC-257 melanoma | PC-3 prostate | EKVX NSCLC | SK-MEL-28 melanoma | HOP-92 NSCLC | SN12C renal | UACC-62 melanoma | NCI-H460 lung | MDA-MB-435 | NCI/ADR-RES ovarian | MDA-MB-231 breast | 786-0 renal | SW-620 colon | SR leukemia | NCI-H23 lung | SNB-19 CNS | HCC-2998 colon | MDA-N | HT29 colon | IGROV1 ovarian | MOLT-4 leukemia | SF-268 CNS | K-562 leukemia | CAKI-1 renal | SK-MEL-5 melanoma | M14 melanoma | SF-539 CNS

c1cncc(C(Nc2cccc3cccnc23)Nc2cccc3cccnc23)c1
> 100 µM: RPMI-8226 leukemia | UO-31 renal | HS 578T breast | U251 CNS | COLO 205 colon | DU-145 prostate | MCF7 breast | OVCAR-3 ovarian | SF-295 CNS | HL-60(TB) leukemia | HCT-116 colon | CCRF-CEM leukemia | SK-OV-3 ovarian | HCT-15 colon | A549 NSCLC | TK-10 renal | OVCAR-5 ovarian | ACHN renal | BT-549 breast | RXF 393 renal | NCI-H522 lung | T-47D breast | SNB-75 CNS | HOP-62 NSCLC | SK-MEL-2 melanoma | OVCAR-8 ovarian | KM12 colon | LOX IMVI melanoma | UACC-257 melanoma | PC-3 prostate | EKVX NSCLC | HOP-92 NSCLC | SN12C renal | UACC-62 melanoma | NCI-H460 lung | MDA-MB-435 | NCI/ADR-RES ovarian | MDA-MB-231 breast | 786-0 renal | SW-620 colon | NCI-H23 lung | SNB-19 CNS | HCC-2998 colon | MDA-N | HT29 colon | IGROV1 ovarian | SF-268 CNS | K-562 leukemia | CAKI-1 renal | SK-MEL-5 melanoma | M14 melanoma | SF-539 CNS

Cc1[nH]n(-c2nc(O)c(C)c(=O)[nH]2)c(=O)c1CCO
93.3 µM: RXF 393 renal
> 100 µM: RPMI-8226 leukemia | UO-31 renal | HS 578T breast | U251 CNS | COLO 205 colon | DU-145 prostate | MCF7 breast | SF-295 CNS | HL-60(TB) leukemia | HCT-116 colon | OVCAR-4 ovarian | CCRF-CEM leukemia | SK-OV-3 ovarian | MALME-3M melanoma | HCT-15 colon | A549 NSCLC | TK-10 renal | NCI-H226 lung | OVCAR-5 ovarian | ACHN renal | BT-549 breast | NCI-H522 lung | T-47D breast | SNB-75 CNS | SK-MEL-2 melanoma | A498 renal | OVCAR-8 ovarian | KM12 colon | UACC-257 melanoma | PC-3 prostate | EKVX NSCLC | SK-MEL-28 melanoma | HOP-92 NSCLC | SN12C renal | UACC-62 melanoma | NCI-H460 lung | MDA-MB-435 | MDA-MB-231 breast | 786-0 renal | SW-620 colon | NCI-H23 lung | SNB-19 CNS | MDA-N | HT29 colon | IGROV1 ovarian | MOLT-4 leukemia | SF-268 CNS | K-562 leukemia | CAKI-1 renal | SK-MEL-5 melanoma | M14 melanoma | SF-539 CNS

CNC(=O)CNC(=O)CCC(=O)N(C)C
> 100 µM: RPMI-8226 leukemia | UO-31 renal | HS 578T breast | U251 CNS | COLO 205 colon | DU-145 prostate | MCF7 breast | OVCAR-3 ovarian | SF-295 CNS | HL-60(TB) leukemia | HCT-116 colon | CCRF-CEM leukemia | SK-OV-3 ovarian | MALME-3M melanoma | HCT-15 colon | A549 NSCLC | TK-10 renal | NCI-H226 lung | OVCAR-5 ovarian | ACHN renal | BT-549 breast | NCI-H522 lung | T-47D breast | SNB-75 CNS | HOP-62 NSCLC | SK-MEL-2 melanoma | A498 renal | OVCAR-8 ovarian | KM12 colon | LOX IMVI melanoma | UACC-257 melanoma | PC-3 prostate | EKVX NSCLC | SK-MEL-28 melanoma | HOP-92 NSCLC | SN12C renal | UACC-62 melanoma | NCI-H460 lung | MDA-MB-435 | NCI/ADR-RES ovarian | MDA-MB-231 breast | 786-0 renal | SW-620 colon | NCI-H23 lung | SNB-19 CNS | HCC-2998 colon | MDA-N | HT29 colon | IGROV1 ovarian | MOLT-4 leukemia | SF-268 CNS | K-562 leukemia | CAKI-1 renal | SK-MEL-5 melanoma | M14 melanoma | SF-539 CNS

N#Cc1nsnc1-c1nc(-c2nsnc2C#N)nc(-c2nsnc2C#N)n1
94 µM: HS 578T breast
> 100 µM: RPMI-8226 leukemia | UO-31 renal | U251 CNS | COLO 205 colon | DU-145 prostate | MCF7 breast | OVCAR-3 ovarian | SF-295 CNS | HL-60(TB) leukemia | HCT-116 colon | OVCAR-4 ovarian | MALME-3M melanoma | HCT-15 colon | TK-10 renal | NCI-H226 lung | OVCAR-5 ovarian | ACHN renal | BT-549 breast | RXF 393 renal | NCI-H522 lung | SNB-75 CNS | HOP-62 NSCLC | SK-MEL-2 melanoma | A498 renal | OVCAR-8 ovarian | KM12 colon | LOX IMVI melanoma | UACC-257 melanoma | PC-3 prostate | EKVX NSCLC | SK-MEL-28 melanoma | SN12C renal | UACC-62 melanoma | NCI-H460 lung | MDA-MB-435 | NCI/ADR-RES ovarian | MDA-MB-231 breast | 786-0 renal | SW-620 colon | SR leukemia | NCI-H23 lung | SNB-19 CNS | HCC-2998 colon | MDA-N | HT29 colon | IGROV1 ovarian | MOLT-4 leukemia | SF-268 CNS | K-562 leukemia | CAKI-1 renal | SK-MEL-5 melanoma | SF-539 CNS

COC(=O)c1cc(C)ccc1CC(Cc1ccccc1C)C(=O)OC (centres undefined)
94.8 µM: MCF7 breast
94.2 µM: HT29 colon
24.7 µM: MOLT-4 leukemia
43.8 µM: MDA-MB-435
74.1 µM: NCI-H522 lung
76.3 µM: EKVX NSCLC
28.4 µM: SK-MEL-5 melanoma
> 100 µM: UO-31 renal | HS 578T breast | COLO 205 colon | DU-145 prostate | OVCAR-3 ovarian | SF-295 CNS | HCT-116 colon | OVCAR-4 ovarian | SK-OV-3 ovarian | MALME-3M melanoma | HCT-15 colon | A549 NSCLC | TK-10 renal | NCI-H226 lung | ACHN renal | BT-549 breast | T-47D breast | SNB-75 CNS | HOP-62 NSCLC | A498 renal | OVCAR-8 ovarian | KM12 colon | PC-3 prostate | SK-MEL-28 melanoma | SN12C renal | UACC-62 melanoma | NCI-H460 lung | NCI/ADR-RES ovarian | MDA-MB-231 breast | 786-0 renal | SW-620 colon | NCI-H23 lung | SNB-19 CNS | HCC-2998 colon | MDA-N | IGROV1 ovarian | SF-268 CNS | K-562 leukemia | CAKI-1 renal | M14 melanoma | SF-539 CNS
44.3 µM: CCRF-CEM leukemia
91.9 µM: UACC-257 melanoma
79.7 µM: HOP-92 NSCLC
77.6 µM: RXF 393 renal
28.1 µM: LOX IMVI melanoma
36.3 µM: HL-60(TB) leukemia

Source: PubChem BioAssay (NCI)
